Experimental data taken from patent EP0390718A1, “Process for preparing new 1-diphenylmethylpiperidine derivatives” (FABRICA ESPANOLA DE PRODUCTOS QUIMICOS Y FARMACEUTICOS, …, priority 1989, dated 1990).

Experiments:
Swiss male mice = assay: preliminary study of the main pharmacologic effects, observation of symptoms and reflexes in mice; assay type: in vivo; conditions: 300 mg/kg
Description: A preliminary study has been made of the main pharmacologic effects using Swiss male mice distributed in groups of four animals; each group was administered one of the products in doses of 300 mg/kg and the animals began to be observed, logging the time when symptoms appeared or given reflexes decreased: spontaneous activity, appearance of stereotype, trembling, convulsions, abnormal body position, loss of reflexes, extent of palpebral aperture, salivation, pyloerection, hypothermia, lachrymation or change in skin colour; observation lasted for 30 minutes and was repeated 1, 2, 3, 4 and 24 hours after treatment; the reference compound chosen was a well-known antiallergic, ketotyphene.

[1] = molecular target: guinea pig isolated ileum contractions caused by histamine (Cavia porcellus, UniProt P31389); assay: guinea pig isolated ileum contractions caused by histamine (in vitro antihistaminic activity); assay type: cell-based; conditions: drug concentration inhibiting 50% of the response to histamine; 10 minutes of incubation with each concentration; Tyrode solution at 37°C; unit M only printed in method b12 (10⁻⁸-10⁻⁵ M); read-out: CI50 (the source's name)
guinea pig isolated ileum contractions caused by histamine, sequence (P31389 whole entry): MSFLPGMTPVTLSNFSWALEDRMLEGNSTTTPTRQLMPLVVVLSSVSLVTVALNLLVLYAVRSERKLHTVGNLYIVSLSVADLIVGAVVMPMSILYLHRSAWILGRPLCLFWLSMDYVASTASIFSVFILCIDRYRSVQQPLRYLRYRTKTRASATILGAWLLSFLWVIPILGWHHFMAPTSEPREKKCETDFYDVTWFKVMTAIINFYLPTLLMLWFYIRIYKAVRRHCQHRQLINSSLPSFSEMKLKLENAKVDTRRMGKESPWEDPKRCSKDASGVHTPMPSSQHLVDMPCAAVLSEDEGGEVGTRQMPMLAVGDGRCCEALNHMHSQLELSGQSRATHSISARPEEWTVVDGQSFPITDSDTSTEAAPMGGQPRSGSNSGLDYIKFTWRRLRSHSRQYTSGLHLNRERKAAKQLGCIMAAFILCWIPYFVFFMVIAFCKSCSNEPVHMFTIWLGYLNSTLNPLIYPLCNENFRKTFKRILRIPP

[2] = Swiss male mice, groups of four, observed 30 minutes and 1, 2, 3, 4 and 24 hours after treatment

Row | Compound | Maximum effect observed/No. of animals Decreased spontaneous activity (Swiss male mice; [2]) | IC50 [1] [nM] | Maximum effect observed/No. of animals Body reflex loss (Swiss male mice; [2]) | Maximum effect observed/No. of animals Hearing reflex loss (Swiss male mice; mouse, in vivo) | Maximum effect observed/No. of animals Hypothermia (Swiss male mice; mouse, in vivo) | Maximum effect observed/No. of animals Palpebral potosis (Swiss male mice; mouse, in vivo)
1 | 1-[(4-chlorophenyl)methyl]-N-[1-(diphenylmethyl)piperidine-4-yl]-2-amino-1 H-benzimidazol [Example 4] | 0 | 63 |  |  |  | 
2 | CN1CCC(=C2c3ccccc3CC(=O)c3sccc32)CC1 [Ketotiphene] | 2/4 |  | 1/4 | - | 4/4 | 1/4
3 | N-[(1-diphenylmethyl)piperidine-4-yl]-1-[(4-fluorophenyl)methyl]-2-amino-1 H-benzimidazol [Example 5] | 0 | 56 |  |  |  | 
